Source: patent US20240148821A1, “PHARMACEUTICAL USE OF CYCLIC PEPTIDE COMPOUND” (CHUGAI SEIYAKU KABUSHIKI KAISHA, priority 2021, published 2024)
Numbered stars: 1 amine (or outer) side, 2 acyl side, 3 side chain; on linkers, the order of the positions; unused ones are H or OH. Bridge positions count the residues as written; N and C are the ends. Square brackets hold non-standard residues; d marks the D form. Peptide text beside a SMILES is read from it. * marks the point of attachment. hPhe(3-Cl-4-CF3) = N[C@@H](CCc1ccc(C(F)(F)F)c(Cl)c1)C(=O)O; X52 = CN([C@@H](Cc1ccccc1OC(F)(F)F)C(=O)[*:2])[*:1]; NMePhe(2-CF3) = CN[C@@H](Cc1ccccc1C(F)(F)F)C(=O)O; NMePhe(3-Br) = CN[C@@H](Cc1cccc(Br)c1)C(=O)O; NMePhe(3-Cl) = CN[C@@H](Cc1cccc(Cl)c1)C(=O)O; NMePhe(2-Cl) = CN[C@@H](Cc1ccccc1Cl)C(=O)O; NMePhe(2-Me) = CN[C@@H](Cc1ccccc1C)C(=O)O; NMehPhe = CN[C@@H](CCc1ccccc1)C(=O)O; NMeCha = CN[C@@H](CC1CCCCC1)C(=O)O; NMehLeu = CN[C@@H](CCC(C)C)C(=O)O; NMeChg = CN[C@H](C(=O)O)C1CCCCC1; NMeF = CN[C@@H](Cc1ccccc1)C(=O)O; NMeD = CN[C@@H](CC(=O)O)C(=O)O; NMeL = CN[C@@H](CC(C)C)C(=O)O; NMeV = CN[C@H](C(=O)O)C(C)C; d(β3hA) = C[C@@H](N)CC(=O)O; Ac6c = NC1(C(=O)O)CCCCC1; NMeA = CN[C@@H](C)C(=O)O; Piperidide = C1CCN(*)CC1; Ac5c = NC1(C(=O)O)CCCC1; Aze = O=C(O)[C@@H]1CCN1; Sar = CNCC(=O)O

These compounds were tested on Human pancreatic cancer cell line AsPC-1 (G12D mutation Kras) (assay: AsPC-1 cell growth inhibition (AsPC-1 CGI)). Conditions: read-out: AsPC-1 cell growth inhibition, 50% growth inhibitory concentration (IC50 value); 96 hours, CellTiter-Glo, values classified in ranges.
Assay type: cell-based
Method: Test compounds were serially dilated with dimethyl sulfoxide, and 200 nL was then dispensed to a U-bottom 96-well plate using Labcyte Echo. […] The cell suspension was dispensed to a. plate containing a test compound at 100 μL per well and incubated at 37° C. in a 5% carbon dioxide gas incubator. 96 hours later, 80 μL of CellTiter-Glo (Promega) was added to each well and fluorescence was measured.
Compound `CC[C@H](C)[C@@H]1NC(=O)[C@H](CC(C)C)N(C)C(=O)C[C@@H](C)NC(=O)[C@H](C(C)C)N(C)C(=O)C2(CCCC2)NC(=O)[C@@H]2CCCN2C(=O)[C@H](CCc2ccc(C(F)(F)F)c(Cl)c2)NC(=O)CN(C)C(=O)[C@H](Cc2cccc(Br)c2)N(C)C(=O)CN(C)C(=O)CN(C)C1=O` [Compound 1587] (cyclo([Ac5c][NMeV][d(β3hA)][NMeL]I[Sar][Sar][NMePhe(3-Br)][Sar][hPhe(3-Cl-4-CF3)]P)) has an IC50 greater than 500 nM.
With `CC[C@H](C)[C@@H]1NC(=O)[C@H](CC(C)C)N(C)C(=O)C[C@@H](C)NC(=O)[C@H](C(C)C)N(C)C(=O)C2(CCCC2)NC(=O)[C@@H]2CCCN2C(=O)[C@H](CCc2ccc(C(F)(F)F)c(Cl)c2)NC(=O)CN(C)C(=O)[C@H](Cc2ccccc2Cl)N(C)C(=O)CN(C)C(=O)CN(C)C1=O` [Compound 1591] (cyclo([Ac5c][NMeV][d(β3hA)][NMeL]I[Sar][Sar][NMePhe(2-Cl)][Sar][hPhe(3-Cl-4-CF3)]P)) the IC50 was greater than 500 nM.
With `CC[C@H](C)[C@@H]1NC(=O)[C@H](C)N(C)C(=O)C[C@@H](C(=O)N2CCCCC2)N(C)C(=O)[C@H](C(C)C)N(C)C(=O)C2(CCCC2)NC(=O)[C@@H]2CCCN2C(=O)[C@H](CCc2ccc(C(F)(F)F)c(Cl)c2)NC(=O)CN(C)C(=O)[C@H](CC2CCCCC2)N(C)C(=O)[C@@H]2CCN2C(=O)[C@H](CCC(C)C)N(C)C1=O` [Compound 1595] ([NMeA]I[NMehLeu][Aze][NMeCha][Sar][hPhe(3-Cl-4-CF3)]P[Ac5c][NMeV][NMeD]-Piperidide; lactam N-11) the IC50 was greater than 500 nM.
`CC[C@H](C)[C@@H]1NC(=O)[C@H](CC(C)C)N(C)C(=O)C[C@@H](C)NC(=O)[C@H](C(C)C)N(C)C(=O)C2(CCCC2)NC(=O)[C@@H]2CCCN2C(=O)[C@H](CCc2ccc(C(F)(F)F)c(Cl)c2)NC(=O)CN(C)C(=O)[C@H](Cc2ccccc2)N(C)C(=O)CN(C)C(=O)CN(C)C1=O` [Compound 1606] (cyclo([Ac5c][NMeV][d(β3hA)][NMeL]I[Sar][Sar][NMeF][Sar][hPhe(3-Cl-4-CF3)]P)) gave an IC50 greater than 500 nM.
Work on `CC[C@H](C)[C@@H]1NC(=O)[C@H](CC(C)C)N(C)C(=O)C[C@@H](C)NC(=O)[C@H](C(C)C)N(C)C(=O)C2(CCCC2)NC(=O)[C@@H]2CCCN2C(=O)[C@H](CCc2ccc(C(F)(F)F)c(Cl)c2)NC(=O)CN(C)C(=O)[C@H](Cc2ccccc2C(F)(F)F)N(C)C(=O)CN(C)C(=O)CN(C)C1=O` [Compound 1613] (cyclo([Ac5c][NMeV][d(β3hA)][NMeL]I[Sar][Sar][NMePhe(2-CF3)][Sar][hPhe(3-Cl-4-CF3)]P)) yielded an IC50 greater than 500 nM.
Compound `CC[C@H](C)[C@@H]1NC(=O)[C@H](CC(C)C)N(C)C(=O)C[C@@H](C)NC(=O)[C@H](C(C)C)N(C)C(=O)C2(CCCC2)NC(=O)[C@@H]2CCCN2C(=O)[C@H](CCc2ccc(C(F)(F)F)c(Cl)c2)NC(=O)CN(C)C(=O)[C@H](Cc2ccccc2C)N(C)C(=O)CN(C)C(=O)CN(C)C1=O` [Compound 1614] (cyclo([Ac5c][NMeV][d(β3hA)][NMeL]I[Sar][Sar][NMePhe(2-Me)][Sar][hPhe(3-Cl-4-CF3)]P)) has an IC50 greater than 500 nM.
`CC[C@H](C)[C@@H]1NC(=O)[C@H](CC(C)C)N(C)C(=O)C[C@@H](C)NC(=O)[C@H](C(C)C)N(C)C(=O)C2(CCCC2)NC(=O)[C@@H]2CCCN2C(=O)[C@H](CCc2ccc(C(F)(F)F)c(Cl)c2)NC(=O)CN(C)C(=O)[C@H](Cc2cccc(Cl)c2)N(C)C(=O)CN(C)C(=O)CN(C)C1=O` [Compound 1623] (cyclo([Ac5c][NMeV][d(β3hA)][NMeL]I[Sar][Sar][NMePhe(3-Cl)][Sar][hPhe(3-Cl-4-CF3)]P)) gave an IC50 greater than 500 nM.
With `CC[C@H](C)[C@@H]1NC(=O)[C@H](CC(C)C)N(C)C(=O)C[C@@H](C)NC(=O)[C@H](C(C)C)N(C)C(=O)C2(CCCC2)NC(=O)[C@@H]2CCCN2C(=O)[C@H](CCc2ccc(C(F)(F)F)c(Cl)c2)NC(=O)CN(C)C(=O)[C@H](CCc2ccccc2)N(C)C(=O)CN(C)C(=O)CN(C)C1=O` [Compound 1627] (cyclo([Ac5c][NMeV][d(β3hA)][NMeL]I[Sar][Sar][NMehPhe][Sar][hPhe(3-Cl-4-CF3)]P)) the IC50 was greater than 500 nM.
With `CC[C@H](C)[C@@H]1NC(=O)[C@H](CC(C)C)N(C)C(=O)C[C@@H](C)NC(=O)[C@H](C(C)C)N(C)C(=O)C2(CCCC2)NC(=O)[C@@H]2CCCN2C(=O)[C@H](CCc2ccc(C(F)(F)F)c(Cl)c2)NC(=O)CN(C)C(=O)[C@H](Cc2ccccc2OC(F)(F)F)N(C)C(=O)CN(C)C(=O)CN(C)C1=O` [Compound 1635] (cyclo([Ac5c][NMeV][d(β3hA)][NMeL]I[Sar][Sar][X52][Sar][hPhe(3-Cl-4-CF3)]P)) the IC50 was greater than 500 nM.
With `CC[C@H](C)[C@@H]1NC(=O)[C@H](CC(C)C)N(C)C(=O)C[C@@H](C(=O)N2CCCCC2)N(C)C(=O)[C@H](C2CCCCC2)N(C)C(=O)C2(CCCCC2)NC(=O)[C@@H]2CCCN2C(=O)[C@H](CCc2ccc(C(F)(F)F)c(Cl)c2)NC(=O)CN(C)C(=O)[C@H](CC2CCCCC2)N(C)C(=O)CN(C)C(=O)CN(C)C1=O` [Compound 1644] ([NMeL]I[Sar][Sar][NMeCha][Sar][hPhe(3-Cl-4-CF3)]P[Ac6c][NMeChg][NMeD]-Piperidide; lactam N-11) the IC50 was greater than 500 nM.
